Results on one compound are retold here after patent US12404244B2, “Pan-KIT kinase inhibitor having quinoline structure and application thereof” (Tarapeutics Science Inc., priority 2018, dated 2025).

Assay [1] deals with TEL-KIT/V559A-BaF3. The experiment in a line: Proliferation of TEL-KIT/V559A-BaF3 cells (CCK-8). It counts as cell-based. Conditions: Mus musculus; 72 hours, CCK-8; read-out: GI50 TEL-KIT/V559A-BaF3. From the text:
(§1) Compounds as provided herein were further evaluated for their inhibitory effects on proliferation of cancer cells by testing their effects on growth of cancer cells. In this example the following cells were used: primary mouse B cells BaF3 (purchased from ATCC), GIST-T1 cells of the human gastrointestinal stromal tumor cell line (expressing wild-type KIT gene) (purchased from Cosmo Bio Co., Ltd. (Japan)). The present lab further constructed and used the following: mouse Tel-Kit-BaF3 (stably expressing KIT wild-type kinase), mouse Tel-Kit/T670I-BaF3 (stably expressing KIT T670I mutant kinase), mouse Tel-Kit/V559A-BaF3 (stably expressing KIT V559A mutant kinase), mouse Tel-Kit/V559D-BaF3 (stably expressing KIT V559D mutant kinase), mouse Tel-Kit/V559G-BaF3 (stably expressing KIT V559G mutant kinase), mouse Tel-Kit/V560D-BaF3 (stably expressing KIT V560D mutant kinase), mouse Tel-Kit/L576P-BaF3 (stably expressing KIT L576P mutant kinase), mouse Tel-Kit/V654A-BaF3 (stably expressing KIT V654A mutant kinase), mouse Tel-Kit/V654A/V559D-BaF3 (stably expressing KIT V654A V559D mutant kinase), mouse Tel-Kit/T670E-BaF3 (stably expressing KIT T670E mutant kinase), mouse Tel-Kit/T670I/V559D-BaF3 (stably expressing KIT T670I V559D mutant kinase), mouse Tel-Kit/S709F-BaF3 (stably expressing KIT S709F mutant kinase), mouse Tel-Kit/D816E-BaF3 (stably expressing KIT D816E mutant kinase), mouse Tel-Kit/D816H-BaF3 (stably expressing KIT D816H mutant kinase), mouse Tel-Kit/D820E-BaF3 (stably expressing KIT D820E mutant kinase), mouse Tel-Kit/D820G-BaF3 (stably expressing KIT D820G mutant kinase), mouse Tel-Kit/D820Y-BaF3 (stably expressing KIT D820Y mutant kinase), mouse Tel-Kit/N822K-BaF3 (stably expressing KIT N822K mutant kinase), mouse Tel-Kit/Y823D-BaF3 (stably expressing KIT Y823D mutant kinase), mouse Tel-Kit/A829P-BaF3 (stably expressing KIT A829P mutant kinase), GIST-T1-T670I cells of the human gastrointestinal stromal tumor cell line (expressing KIT-T670I mutant gene). The above cell lines were constructed by: amplifying respectively the sequences of human KIT and various mutant kinase regions of KIT via PCR, inserting the fragments respectively into MSCV-Puro vectors having a N-terminal TEL fragment and/or a NPM fragment and/or a TPR fragment (purchased from Clontech), transfecting mouse BaF3 cells with the vectors by means of retrovirus to obtain stably transfected cells, removing the growth factor IL-3, and thereby eventually obtaining cell lines that depend on the transferred protein KIT or various mutants of KIT. […]

For assay [2], the system named is TEL-KIT/D820G-BaF3. Briefly: Proliferation of TEL-KIT/D820G-BaF3 cells (CCK-8). Type of assay: cell-based. To be noted: Mus musculus; 72 hours, CCK-8; read-out: GI50 TEL-KIT/D820G-BaF3.
From the text: as §1

The test system of assay [3] is TEL-KIT/D820E-BaF3. Briefly: Proliferation of TEL-KIT/D820E-BaF3 cells (CCK-8). To be noted: Mus musculus; 72 hours, CCK-8; read-out: GI50 TEL-KIT/D820E-BaF3. It counts as cell-based.
From the text: as §1

Assay [4] relates to GIST-T1/T670I. The experiment in a line: Proliferation of GIST-T1/T670I cells (CCK-8). It counts as cell-based. To be noted: Homo sapiens, GISTT1; 72 hours, CCK-8; read-out: GI50 GIST-T1/T670I.
From the text: as §1, with “gene).” for “gene). The above cell lines were constructed by: amplifying respectively the sequences of human KIT and various mutant kinase regions of KIT via PCR, inserting the fragments respectively into MSCV-Puro vectors having a N-terminal TEL fragment and/or a NPM fragment and/or a TPR fragment (purchased from Clontech), transfecting mouse BaF3 cells with the vectors by means of retrovirus to obtain stably transfected cells, removing the growth factor IL-3, and thereby eventually obtaining cell lines that depend on the transferred protein KIT or various mutants of KIT.”
(§2) The cells after incubation were detected using CCK-8 (purchased from MedChem Express, Shanghai, China) cell viability assay kit (CCK-8 may be reduced by dehydrogenase in living cells to a highly water-soluble yellow formazan product, and the amount of the resultant formazan is proportional to the number of living cells), the number of living cells were quantified with a microplate reader, and GI50 of the compounds and the control compounds were calculated (the results shown in Table 2 and Table 3).

For assay [5], the system named is TEL-KIT/V559D-BaF3. Briefly: Proliferation of TEL-KIT/V559D-BaF3 cells (CCK-8). To be noted: Mus musculus; 72 hours, CCK-8; read-out: GI50 TEL-KIT/V559D-BaF3. It counts as cell-based.
From the text: as §1

The test system of assay [6] is TEL-KIT/N822K-BaF3. The experiment in a line: Proliferation of TEL-KIT/N822K-BaF3 cells (CCK-8). Type of assay: cell-based. Conditions: Mus musculus; 72 hours, CCK-8; read-out: GI50 TEL-KIT/N822K-BaF3.
From the text: as §1

In assay [7] the test system is TEL-KIT/A829P-BaF3. The experiment in a line: Proliferation of TEL-KIT/A829P-BaF3 cells (CCK-8). Conditions: Mus musculus; 72 hours, CCK-8; read-out: GI50 TEL-KIT/A829P-BaF3. Type of assay: cell-based.
From the text: as §1

Assay [8] has as its system TEL-KIT/T670I-BaF3. Briefly: Proliferation of TEL-KIT/T670I-BaF3 cells (CCK-8). To be noted: Mus musculus; 72 hours, CCK-8; read-out: GI50 TEL-KIT/T670I-BaF3. Type of assay: cell-based, mouse. From the text:
Compounds as provided herein were further evaluated for their inhibitory effects on proliferation of cancer cells by testing their effects on growth of cancer cells. In this example the following cells were used: primary mouse B cells BaF3 (purchased from ATCC), GIST-T1 cells of the human gastrointestinal stromal tumor cell line (expressing wild-type KIT gene) (purchased from Cosmo Bio Co., Ltd. (Japan)). The present lab further constructed and used the following: mouse Tel-Kit-BaF3 (stably expressing KIT wild-type kinase), mouse Tel-Kit/T670I-BaF3 (stably expressing KIT T670I mutant kinase), mouse Tel-Kit/V559A-BaF3 (stably expressing KIT V559A mutant kinase), mouse Tel-Kit/V559D-BaF3 (stably expressing KIT V559D mutant kinase), mouse Tel-Kit/V559G-BaF3 (stably expressing KIT V559G mutant kinase), mouse Tel-Kit/V560D-BaF3 (stably expressing KIT V560D mutant kinase), mouse Tel-Kit/L576P-BaF3 (stably expressing KIT L576P mutant kinase), mouse Tel-Kit/V654A-BaF3 (stably expressing KIT V654A mutant kinase), mouse Tel-Kit/V654A/V559D-BaF3 (stably expressing KIT V654A V559D mutant kinase), mouse Tel-Kit/T670E-BaF3 (stably expressing KIT T670E mutant kinase), mouse Tel-Kit/T670I/V559D-BaF3 (stably expressing KIT T670I V559D mutant kinase), mouse Tel-Kit/S709F-BaF3 (stably expressing KIT S709F mutant kinase), mouse Tel-Kit/D816E-BaF3 (stably expressing KIT D816E mutant kinase), mouse Tel-Kit/D816H-BaF3 (stably expressing KIT D816H mutant kinase), mouse Tel-Kit/D820E-BaF3 (stably expressing KIT D820E mutant kinase), mouse Tel-Kit/D820G-BaF3 (stably expressing KIT D820G mutant kinase), mouse Tel-Kit/D820Y-BaF3 (stably expressing KIT D820Y mutant kinase), mouse Tel-Kit/N822K-BaF3 (stably expressing KIT N822K mutant kinase), mouse Tel-Kit/Y823D-BaF3 (stably expressing KIT Y823D mutant kinase), mouse Tel-Kit/A829P-BaF3 (stably expressing KIT A829P mutant kinase), GIST-T1-T670I cells of the human gastrointestinal stromal tumor cell line (expressing KIT-T670I mutant gene). The above cell lines were constructed by: amplifying respectively the sequences of human KIT and various mutant kinase regions of KIT via PCR, inserting the fragments respectively into MSCV-Puro vectors having a N-terminal TEL fragment and/or a NPM fragment and/or a TPR fragment (purchased from Clontech), transfecting mouse BaF3 cells with the vectors by means of retrovirus to obtain stably transfected cells, removing the growth factor IL-3, and thereby eventually obtaining cell lines that depend on the transferred protein KIT or various mutants of KIT. The GIST-T1-T670I (expressing C-KIT-T670I mutant gene) cell line was constructed by our laboratory as follows: designing sgRNA that targeted a region around T670 of the KIT gene with CRISPR Design Tool (website: crispr.mit.edu, Zhang Feng Lab), cloning it into pSpCas9(BB)-2A-Puro vector; co-transfecting cells with the resultant vector and a single-stranded oligonucleotide having T670I site mutation that is near to T670, subjecting the resultant to antibiotics screening, followed by dilution, and monocellular culture in a 96-well plate; validating the site T670 of the cells by sequence detection via Sanger sequencing.

The subject of assay [9] is GIST-T1. The experiment in a line: Proliferation of GIST-T1 cells (CCK-8). To be noted: Homo sapiens, GISTT1; 72 hours, CCK-8; read-out: GI50 GIST-T1. Type of assay: cell-based.
From the text: as §1, with “gene).” for “gene). The above cell lines were constructed by: amplifying respectively the sequences of human KIT and various mutant kinase regions of KIT via PCR, inserting the fragments respectively into MSCV-Puro vectors having a N-terminal TEL fragment and/or a NPM fragment and/or a TPR fragment (purchased from Clontech), transfecting mouse BaF3 cells with the vectors by means of retrovirus to obtain stably transfected cells, removing the growth factor IL-3, and thereby eventually obtaining cell lines that depend on the transferred protein KIT or various mutants of KIT.”
as §2

For assay [10], the system named is TEL-KIT/D816H-BaF3. The experiment in a line: Proliferation of TEL-KIT/D816H-BaF3 cells (CCK-8). It counts as cell-based. Conditions: Mus musculus; 72 hours, CCK-8; read-out: GI50 TEL-KIT/D816H-BaF3.
From the text: as §1

In assay [11] the test system is TEL-KIT/T670I/V559D-BaF3. Briefly: Proliferation of TEL-KIT/T670I/V559D-BaF3 cells (CCK-8). It counts as cell-based. Conditions: Mus musculus; 72 hours, CCK-8; read-out: GI50 TEL-KIT/T670I/V559D-BaF3.
From the text: as §1

In assay [12] the test system is TEL-KIT/S709F-BaF3. The experiment in a line: Proliferation of TEL-KIT/S709F-BaF3 cells (CCK-8). To be noted: Mus musculus; 72 hours, CCK-8; read-out: GI50 TEL-KIT/S709F-BaF3. Type of assay: cell-based.
From the text: as §1

Assay [13] deals with TEL-KIT/V654A-BaF3. The experiment in a line: Proliferation of TEL-KIT/V654A-BaF3 cells (CCK-8). Type of assay: cell-based. To be noted: Mus musculus; 72 hours, CCK-8; read-out: GI50 TEL-KIT/V654A-BaF3.
From the text: as §1

The test system of assay [14] is TEL-KIT/V560D-BaF3. Briefly: Proliferation of TEL-KIT/V560D-BaF3 cells (CCK-8). Type of assay: cell-based. Conditions: Mus musculus; 72 hours, CCK-8; read-out: GI50 TEL-KIT/V560D-BaF3.
From the text: as §1

The subject of assay [15] is TEL-KIT/D816E-BaF3. Briefly: Proliferation of TEL-KIT/D816E-BaF3 cells (CCK-8). It counts as cell-based. Conditions: Mus musculus; 72 hours, CCK-8; read-out: GI50 TEL-KIT/D816E-BaF3.
From the text: as §1

In assay [16] the test system is TEL-KIT/V654A/V559D-BaF3. Briefly: Proliferation of TEL-KIT/V654A/V559D-BaF3 cells (CCK-8). Type of assay: cell-based. To be noted: Mus musculus; 72 hours, CCK-8; read-out: GI50 TEL-KIT/V654A/V559D-BaF3.
From the text: as §1

Assay [17] deals with TEL-KIT/Y823D-BaF3. The experiment in a line: Proliferation of TEL-KIT/Y823D-BaF3 cells (CCK-8). Type of assay: cell-based. Conditions: Mus musculus; 72 hours, CCK-8; read-out: GI50 TEL-KIT/Y823D-BaF3.
From the text: as §1

For assay [18], the system named is TEL-KIT/T670E-BaF3. The experiment in a line: Proliferation of TEL-KIT/T670E-BaF3 cells (CCK-8). It counts as cell-based. To be noted: Mus musculus; 72 hours, CCK-8; read-out: GI50 TEL-KIT/T670E-BaF3.
From the text: as §1

Assay [19] relates to TEL-KIT/V559G-BaF3. Briefly: Proliferation of TEL-KIT/V559G-BaF3 cells (CCK-8). It counts as cell-based. To be noted: Mus musculus; 72 hours, CCK-8; read-out: GI50 TEL-KIT/V559G-BaF3.
From the text: as §1

For assay [20], the system named is TEL-KIT/D820Y-BaF3. Briefly: Proliferation of TEL-KIT/D820Y-BaF3 cells (CCK-8). It counts as cell-based. To be noted: Mus musculus; 72 hours, CCK-8; read-out: GI50 TEL-KIT/D820Y-BaF3.
From the text: as §1

On to `Cc1ccc(NC(=O)c2ccc(CN3CCN(C)CC3)cc2)cc1Nc1nccc(-c2cccnc2)n1` [Imatinib, reference compound], for which the GI50 in assay [1] is 905 nM; in assay [2], 337 nM; in assay [3] it was 35 nM; in assay [4], greater than 10000 nM; in [5], 10 nM; in [6] it was 1470 nM. The GI50 was 580 nM in [7]; greater than 10000 nM in [8]; 15 nM in assay [9]; 651 nM in [10]; greater than 10000 nM in assay [11]; 115 nM in assay [12]. The GI50 came out at 1410 nM in assay [13]; 3 nM in assay [14]; 174 nM in assay [15]; 608 nM in assay [16]; 5870 nM in assay [17]; 4080 nM in assay [18]. The GI50 in [19] worked out at 8 nM; in [20] it was 435 nM.
